# Measured values published in US11241501B2, “Anticancer prodrug for overcoming drug resistance” (Korea University Research and Business Foundation, priority 2018, dated 2022).
# How the values were obtained:
# [1] = test system: p21^Waf1 and phosphorylated PDH levels; assay: Immunoblot assay of p21Waf1 and phosphorylated PDH; format: cell-based, human
# Experimental: HepG2 cells treated with each compound (5 μM, 24 hr) were co-stained with the mitochondrial marker MitoTracker (green). Boxed regions show co-localization of the test compounds and probe within the mitochondria. […] Experiments were carried out in triplicate and the data shown represent means±SD. **p<0.01. […] HepG2 cells were incubated with BNPP (100 μM) for 2 hr prior to C1 treatment. **p<0.01. […] Cleaved caspase-3 and PARP-1 levels were examined to assess apoptosis induction. C, cleaved.
# (§1) Immunoblot analyses were performed using antibodies specific for phosphorylated serine 293 PDH-EI (ab92696), p21^Waf1 (sc-397), cleaved PARP (5625), cleaved caspase-3 (9664), COX-IV (4850), and Cytochrome c (4280). They were purchased from Abcam (Cambridge, UK), Santa Cruz Biotechnology (Texas, USA) or Cell Signaling Technology (Massachusetts, USA). Anti-tubulin antibodies were obtained from Sigma-Aldrich (St. Louis, USA). Briefly, cells were washed twice in ice-cold PBS and lysed in a radioimmunoprecipitation assay buffer containing 50 mM Tris/HCl (pH 7.5), 150 mM NaCl, 0.1% sodium dodecyl sulfate (SDS), 1% Triton X-100, 1% sodium deoxycholate, and protease inhibitor mixture. After sonification, the lysate was centrifuged, and the supernatant was recovered and loaded onto a 12% SDS-polyacrylamide gel for electrophoresis.
# [2] = test system: MCF7/Dox xenograft tumors; assay: Xenograft tumor study; format: in vivo; settings: mice, C1 15 mg/kg/d, Dox 2 mg/Kg/d + DCA 50 mg/Kg/d, once every four days
# Experimental: (§2) Data represent the mean±SD. *p<0.05.
# (§3) To assess tumor target specificity and the organ distribution of C1 in vivo and ex vivo, MCF7 and MCF7/Dox cells were injected subcutaneously into mice. When tumor growth reached a detectable size, the mice were treated with C1 (15 mg/kg/d), doxorubicin (2 mg/Kg/d)+DCA (50 mg/Kg/d), or vehicle (DMSO) by i.v. injection once every 4 days for 30 days. After 15 days of treatment, the animals were euthanized via CO2 asphyxiation. The xenograft tumors were excised and photographed. In vivo fluorescence images of the mice were recorded and quantified using a Maestro2 instrument (excitation and emission wavelengths: 500 and 650 nm, respectively). The fluorescence images and auto-fluorescence were then deconvoluted using the software provided with the instrument (Maestro software ver.2.4, CRi, Woburn, Mass., USA) using the multiexcitation spectral analysis function.
# (§4) Five-week-old immunodeficient nude mice (nu/nu) mice (Orient Bio, Inc.) were maintained in pressurized ventilated cages under conditions of repeated controlled illumination (12 h dark; 12 h light) with ad libitum access to sterilized water and food (Cat no: 1314Fort, ALTROMIN company, Germany). MCF-7/Dox cells (1×10^7) in […] PBS were injected subcutaneously into each nude mouse. […] Tumor growth was monitored periodically, and the tumor volume (V) was calculated by using V=½× length×(width)^2. […]
# MCF7 xenograft tumors = assay: Xenograft tumor study; format: in vivo; settings: mice, C1 15 mg/kg/d, Dox 2 mg/Kg/d + DCA 50 mg/Kg/d, once every four days
# Experimental: as §2, §3, §4
# [3] = test system: cancer cells (A549 and HepG2), normal cells (NHDF and IMR90); assay: Cellular uptake of compounds in normal and cancer cells; format: cell-based, human; settings: 5 μM, 6 h, A549, HepG2 vs NHDF
# Experimental: Cells were treated with 5 μM of each compound for 6 h. Fluorescence intensities were determined using SpectraMAX 13;
# (§5) To analyze the cellular fluorescence levels upon compound treatment, cells were seeded in plates 1 day before treatment with the compounds. Cells were then treated with each compound for the indicated dose or time course. After the experiment, cells were washed with ice-cold PBS, trypsinized, and centrifuged. The cell pellet was re-suspended in 300 μL of PBS and then analyzed using a multiplate reader (SpectraMAX I3x). The results were normalized according to the number of cells.
# [4] = Hepatotoxicity assay, serum ALT and AST; format: in vivo; settings: mice bearing MCF7/Dox tumors
# Experimental: Tumors are shown (right). […] C1 injection led to a 58% reduction in tumor growth, which was statistically greater than the reductions seen in the case of C2 (16%), C3 (9%), C4 (6%) and DMSO (0%) tested under otherwise identical conditions.
# Blood samples of each mice were centrifuged at 3,000 rpm for 10 min at 4° C. to produce serum. Then, the activities of ALT and AST in serum were analyzed using the AST and ALT Activity Assay Kits (MAK055, MAK052, Sigma) according to the manufacturer's instructions.
# HepG2 cells = assay: Immunoblot assay of cleaved caspase-3 and PARP-1; format: cell-based, human
# Experimental: as §1
# MCF7 and MCF7/Dox tumors = assay: In vivo and ex vivo fluorescent imaging; settings: mice bearing MCF7 and MCF7/Dox tumors
# MCF7 and MCF7/Dox cells = assay: Intracellular accumulation, fluorescence assay; format: cell-based, human; settings: up to 12 hr after treatment
# Experimental: Fluorescence intensities were measured with SpectraMAX 13. Data represent means±SD. **p<0.01. […] Data represent means±SD. **[…]. […] Data represent the mean±SD (n=3 experimental replicates). *p<0.05, **p<0.01. […] MCF7/Dox cells were treated with C1 or C3 as indicated, and the cytosolic (C) and mitochondrial (M) fractions were subjected to immunoblot assay. COX-IV and tubulin were used as markers for the mitochondria and cytosol fractions, respectively.
# Mito-tracker (green) was utilized to show the mitochondria;
# as §5
# MCF7/Dox cells = assay: Cell viability, C1 versus Dox+DCA; format: cell-based, human; settings: resistant MCF7/Dox cells
# Experimental: (§6) Data represent the mean±SD. *p<0.05. […] Cells were seeded in 24 well plates at 2×10^5 cells per well and were allowed to adhere for at least 24 h, growth medium was replaced with medium containing C1 or its analogues at the indicated concentrations and times, and cell viability was assessed via the WST-1 assay (Roche Diagnostics, Laval, QC, Canada). For the colony formation assay, cells were seeded in 6-well plates. After 24 h, cells were maintained in the presence of each probe or vehicle dimethyl sulfoxide (DMSO) for 10 days. Colonies were fixed with methanol for 10 min and stained with 0.05% crystal violet in 20% ethanol.
# MCF7 cell line = assay: Cell viability, C1 versus Dox+DCA; format: cell-based, human
# Experimental: as §6
smiles,measurement,setting,value
COc1cccc2c1C(=O)c1c(O)c3c(c(O)c1C2=O)C[C@@](O)(C(=O)CO)C[C@@H]3OC1C[C@H](NC(=O)OC(Cc2cn(CCCCCC[P+](c3ccccc3)(c3ccccc3)c3ccccc3)nn2)c2ccc(NC(=O)C(Cl)Cl)cc2)[C@H](O)[C@H](C)O1.[Br-] (stereo partly shown) [C1],effect on p21^Waf1 and phosphorylated PDH levels,[1],up- and downregulation of p21^Waf1 and phosphorylated PDH levels
same,reduction in the tumor volume,[2],~74%
same,reduction in the tumor volume,MCF7 xenograft tumors,approximately 78%
same,tumor cell selectivity of cellular uptake,[3],taken up specifically by cancer cells
same,toxicity from ALT and AST levels in blood serum,[4],no significant toxicity
same,apoptosis-inducing activity (cleaved caspase-3 and PARP-1),HepG2 cells,greater apoptosis-inducing activity than C2
same,tumor specificity of Dox accumulation (fluorescence imaging of mice and dissected organs),MCF7 and MCF7/Dox tumors,highly tumor-specific accumulation of Dox
same,intracellular accumulation in MCF7/Dox versus MCF7,MCF7 and MCF7/Dox cells,comparable level in both MCF7 and MCF7/Dox cells
same,cytotoxic effect,MCF7/Dox cells,appreciable cytotoxic effect
same,reduction in cell viability,MCF7 cell line,comparable reduction in cell viability
